The target in this test is T1, Pancreatic alpha-amylase (Sus scrofa, UniProt P00690).
T1 sequence (P00690 whole entry): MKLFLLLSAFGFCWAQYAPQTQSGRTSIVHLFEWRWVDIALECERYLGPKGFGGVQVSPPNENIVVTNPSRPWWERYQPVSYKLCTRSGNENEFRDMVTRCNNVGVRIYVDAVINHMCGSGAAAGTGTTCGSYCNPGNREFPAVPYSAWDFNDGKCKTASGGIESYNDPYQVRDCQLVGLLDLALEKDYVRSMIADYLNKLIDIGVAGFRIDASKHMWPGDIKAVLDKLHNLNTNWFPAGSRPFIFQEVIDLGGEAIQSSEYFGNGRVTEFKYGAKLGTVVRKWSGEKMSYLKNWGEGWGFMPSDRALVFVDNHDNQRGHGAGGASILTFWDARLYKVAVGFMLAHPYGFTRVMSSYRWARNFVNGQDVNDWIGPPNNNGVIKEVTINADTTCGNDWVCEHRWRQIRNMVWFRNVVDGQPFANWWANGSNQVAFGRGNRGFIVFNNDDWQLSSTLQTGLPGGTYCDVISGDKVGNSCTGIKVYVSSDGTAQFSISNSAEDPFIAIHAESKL
As to the kind of experiment: Enzymatic Activity Assay. The conditions noted are these: pH 7; 37 °C. From the text:
To test whether GCTs share a common binding pocket on PPA with acarbose, we performed an experiment according to the method of Yonetani and Theorell.

Regarding `CO[C@@H]1O[C@H](Cn2cc(-c3ccccc3)nn2)[C@@H]2OC(C)(C)OC12` (some centres not stated) [GPESB01], the IC50 (as a rule, the concentration that inhibits the measured activity by half) worked out at 361 µM; the Ki (in general, the dissociation constant of the complex between target and ligand, obtained from inhibition or displacement) stood at 780 µM.
In turn, `CO[C@@H]1O[C@H](Cn2cc(C3=CCCCC3)nn2)[C@@H]2OC(C)(C)OC12` (some centres not stated) [GPESB02] gave an IC50 of 150 µM and a Ki of 342 µM.
In the case of `CO[C@@H]1O[C@H](Cn2cc(C3(O)CCCCC3)nn2)[C@@H]2OC(C)(C)OC12` (some centres not stated) [GPESB07], the IC50 came to 356 µM and the affinity, expressed as Ki, was 1010 µM.
For `CO[C@@H]1O[C@H](Cn2cc(COC(C)=O)nn2)[C@@H]2OC(C)(C)OC12` (some centres not stated) [GPESB11], in that order: 125 µM and 234 µM.
For `OC1[C@H](O)O[C@H](Cn2cc(-c3ccccc3)nn2)[C@@H]1O` (some centres not stated) [GPESB14], in that order: 88.9 µM and 204 µM.
Compound `OC1[C@H](O)O[C@H](Cn2cc(C3=CCCCC3)nn2)[C@@H]1O` (some centres not stated) [GPESB15] displayed an IC50 of 35.8 µM and a Ki of 33.6 µM.

Source of the values: BindingDB's records for doi:10.1002/cbic.201200272 (Yonsei University, 2012).
